Common to all, as to format: cell-based
The test system of experiment [1] is MCF-7 McGuire (Estrogen Responsive Human Breast Cancer Cell Line). Put plainly: Inhibition of DNA synthesis (3H-TdR uptake) / proliferation, MCF-7. The conditions noted are these: for inhibition at 0.1 µg/mL / inhibition at 1 µg/mL / inhibition at 5 µg/mL / inhibition at 10 µg/mL / inhibition at 20 µg/mL: Homo sapiens, MCF7, 48 h; for inhibition at 0.1 µg/mL: MCF-7, 0.1 μg/mL; for inhibition at 1 µg/mL: MCF-7, 1 μg/mL; for inhibition at 20 µg/mL: MCF-7, 20 μg/mL. How it is done: (§1) Cells were cultured in the following media: 1) MDA MB 435 cells were cultured in Minimum Essential Media (MEM-HyClone, Logan, Utah) supplemented with 5% heat inactivated fetal bovine serum (HyClone), 2 mM glutamine (Sigma, St. Louis, Mo.), 1 mM sodium pyruvate (Sigma), 1X MEM Non-Essential Amino Acids (Sigma), 2X MEM Vitamins (Sigma), and 100 IU/mL penicillin/100 μg/mL streptomycin (HyClone); 2) MCF-7 McGuire cells were cultured in Minimum Essential Media (MEM-HyClone, Logan, Utah) supplemented with 5% heat inactivated fetal bovine serum (HyClone), 2 mM glutamine (Sigma, St. Louis, Mo.), and 100 IU/mL penicillin/100 μg/mL streptomycin (HyClone); 3) HL-60 cells were cultured in Iscoves Modified Dulbecco's Media (IMDM-HyClone, Logan, Utah) supplemented with 5% heat inactivated fetal bovine serum (HyClone), 2 mM glutamine (Sigma, St. Louis, Mo.), 1 mM sodium pyruvate (Sigma), 1X MEM Non-Essential Amino Acids (Sigma), 2X MEM Vitamins (Sigma), and 100 IU/mL penicillin/100 μg/mL streptomycin (HyClone); 2) MCF-7 McGuire cells were cultured in Minimum Essential Media (MEM-HyClone, Logan, Utah) supplemented with 5% heat inactivated fetal bovine serum (HyClone), 2 mM glutamine (Sigma, St. Louis, Mo.), and 100 IU/mL penicillin/100 μg/mL streptomycin (HyClone); 3) HL-60 cells were cultured in Iscoves Modified Dulbecco's Media (IMDM-HyClone, Logan, Utah) supplemented with 5% heat inactivated fetal bovine serum (HyClone), 2 mM glutamine (Sigma, St. Louis, Mo.), and 100 IU/mL penicillin/100 μg/mL streptomycin (HyClone).
(§2) All compounds were handled as if they were light sensitive. All compounds were initially dissolved in absolute ethanol and subsequently diluted to a final concentration of 0.5% ethanol with the appropriate medium.
(§3) For the bioassay, all cells were used at 2.5×10^5 /mL. Cells were treated with each of the compounds at concentrations of 20, 10, 5, 1, 0.1, and 0.01 μg/mL , and 200 μl of each treatment group were plated in quadruplicate in a 96 well culture plate (Corning, Corning N.Y.). Plates were done in duplicate, one plate to be used for viability testing and the other plate to examine ^3 H-TdR uptake (DNA synthesis).
(§4) Plates were cultured for 48 hours at 37° C., 5% CO2. Eight hours prior to the end of incubation, ^3 H-TdR was added to one of the duplicate plates and incubation continued for 8 hours. The cells were then harvested (trypsinization was required to harvest MDA MB 435 and MCF-7 McGuire). At the end of the incubation, the cells were removed from the wells (of the duplicate plate--no radioisotope added) and viability checked by the Trypan Blue Exclusion method. Percent viability and percent suppression of each treatment group were calculated.
(§5) With respect to the data shown in the Tables below, the data is arranged from greatest percent inhibition of DNA synthesis to lowest. […] "NT" refers to "Not Tested". The cells were cultured for 48 hours, pulsed 8 hours with tritiated thymidine, harvested and counted. MDA MB 435 is the abbreviation for the Metastic Human Breast Cancer Cell Line. MCF-7 McGuire is the abbreviation for the Estrogen Responsive Human Breast Cancer Cell Line and HL-60 is the Human Promyelocytic Leukemia Cell Line.

For experiment [2], the system named is MDA MB 435 (Metastic Human Breast Cancer Cell Line). In words: Inhibition of DNA synthesis (3H-TdR uptake) / proliferation, MB-435. To be noted: for inhibition at 0.1 µg/mL / inhibition at 1 µg/mL / inhibition at 5 µg/mL / inhibition at 10 µg/mL / inhibition at 20 µg/mL: Homo sapiens, MDA-MB-435, 48 h; for inhibition at 0.1 µg/mL: MB-435, 0.1 μg/mL; for inhibition at 1 µg/mL: MB-435, 1 μg/mL; for inhibition at 20 µg/mL: MB-435, 20 μg/mL. How it is done:
as §1, §2, §3, §4, §5

Experiment [3] concerns HL-60 (Human Promyelocytic Leukemia Cell Line). In words: Inhibition of DNA synthesis (3H-TdR uptake) / proliferation, HL-60. The conditions noted are these: for inhibition at 0.1 µg/mL / inhibition at 1 µg/mL / inhibition at 5 µg/mL / inhibition at 10 µg/mL / inhibition at 20 µg/mL: Homo sapiens, 48 h; for inhibition at 0.1 µg/mL: HL-60, 0.1 μg/mL; for inhibition at 1 µg/mL: HL-60, 1 μg/mL; for inhibition at 10 µg/mL: HL-60, 10 μg/mL. How it is done:
as §1, §2, §3, §4, §5

SMILES strings stand for the structures.

The inhibition is the drop in the measured response relative to a control, in per cent.

For `CC(=O)Oc1c(C)cc2c(c1C)C(C)CN2C(=O)C(C)C` (centres unmarked) [Compound 12b, N-Isobutyryl-5-acetoxy-3,4,6-trimethylindoline], the inhibition at 0.1 µg/mL in experiment [1] is 20%; in experiment [2], 1%; in experiment [3] it was 0%. Also, the inhibition at 1 µg/mL in experiment [1] is 47%; in experiment [2], 19%; in experiment [3], 2%. Besides, the inhibition at 5 µg/mL in experiment [1] (MCF-7, 5 μg/mL) turned out to be 38%; in experiment [2] (MB-435, 5 μg/mL), 32%; in experiment [3] (HL-60, 5 μg/mL), 32%. The inhibition at 10 µg/mL in experiment [1] (MCF-7, 10 μg/mL) came out at 58%; in experiment [2] (MB-435, 10 μg/mL), 24%; in experiment [3], 67%. In addition, the inhibition at 20 µg/mL is 70% in experiment [1]; 41% in experiment [2]; 46% in experiment [3] (HL-60, 20 μg/mL). The “inhibition of proliferation (in words)” value in experiment [1] (MCF-7, 5-20 μg/mL) is “significantly inhibited the proliferation”; in experiment [2] (MB-435, 5-20 μg/mL) it was “significantly inhibited the proliferation”; in experiment [3] (HL-60, 5-20 μg/mL) it was “significantly inhibited the proliferation”.
`CC(C)(C)c1cc2c(c(C(C)(C)C)c1O)CC(=O)O2` [Compound 24, 4,6-Di-tert-butyl-2,3-dihydro-5-hydroxy-2(3H)-benzofuranone]: the inhibition at 0.1 µg/mL came out at 0% in experiment [1], 13% in experiment [2] and 7% in experiment [3]. Moreover, the inhibition at 1 µg/mL in experiment [1] amounted to 4%; in experiment [2], 5%; in experiment [3], 0%. In addition, the inhibition at 5 µg/mL in experiment [1] (MCF-7, 5 μg/mL) stood at 25%; in experiment [2] (MB-435, 5 μg/mL) it was 29%; in experiment [3] (HL-60, 5 μg/mL), 5%. Further, the inhibition at 10 µg/mL came to 85% in experiment [1] (MCF-7, 10 μg/mL); 85% in experiment [2] (MB-435, 10 μg/mL); 30% in experiment [3]. The inhibition at 20 µg/mL in experiment [1] stood at 97%; in experiment [2] it was 97%; in experiment [3] (HL-60, 20 μg/mL), 47%. Also, the “inhibition of proliferation (in words)” value in experiment [1] (MCF-7, 10 μg/mL) is given as “significantly inhibited the proliferation”; in experiment [2] (MB-435, 10 μg/mL), “significantly inhibited the proliferation”; in experiment [3] (HL-60, 20 μg/mL), “significantly inhibited the proliferation”.
As to `Cc1c(O)c(C)c2c(C)cn(C(=O)C(C)(C)C)c2c1C` [Compound 27, N-Pivaloyl-5-hydroxy-3,4,6,7-tetramethylindole], the figures for the inhibition at 0.1 µg/mL in experiment [1], in experiment [2] and in experiment [3] were 0%, 4% and 0%, respectively. Besides, the results for the inhibition at 1 µg/mL in experiment [1], in experiment [2] and in experiment [3] were 14%, 15% and 12%, respectively. In addition, the inhibition at 5 µg/mL in experiment [1] (MCF-7, 5 μg/mL) is 57%; in experiment [2] (MB-435, 5 μg/mL), 54%; in experiment [3] (HL-60, 5 μg/mL), 61%. Besides, the inhibition at 10 µg/mL was found to be 86% in experiment [1] (MCF-7, 10 μg/mL); 91% in experiment [2] (MB-435, 10 μg/mL); 91% in experiment [3]. The “inhibition of proliferation (in words)” value is on record as “significantly inhibited the proliferation” in experiment [1] (MCF-7, 5 μg/mL); “significantly inhibited the proliferation” in experiment [2] (MB-435, 5 μg/mL); “significantly inhibited the proliferation” in experiment [3] (HL-60, 5 μg/mL). Moreover, the inhibition at 20 µg/mL in experiment [2] came to 97%; in experiment [3] (HL-60, 20 μg/mL), 97%.

The values are drawn from patent US5674876A, “.rho.-heteroatom-substituted phenols and uses thereof” (Research Development Foundation, priority 1995, dated 1997).
